Legend:
Format in all cases: in vivo
[1] = test system: Yellow Fever Mosquito (Aedes aegypti); assay: whole plant or invertebrate; details: 48 h, in comparison with untreated controls, larval mortality after 2 days
Description: B.12 Yellow Fever Mosquito (Aedes aegypti)
For evaluating control of yellow fever mosquito (Aedes aegypti) the test unit consisted of 96-well-microtiter plates containing 200 μl of tap water per well and 5-15 freshly hatched A. aegypti larvae. The compounds or mixtures were formulated using a solution containing 75% water and 25% DMSO. Different concentrations of formulated compounds or mixtures were sprayed onto the insect diet at 2.5 μl, using a custom built micro atomizer, at two replications. After application, microtiter plates were incubated at 28±1° C., 80±5% relative humidity for 2 days. Larval mortality was then visually assessed.

[2] = test system: Vetch Aphid (Megoura viciae); assay: B.7 Vetch aphid test on broad bean leaf disks; details: foliar, 120 h, in comparison with untreated controls, 5 days
Description: B.7 Vetch Aphid (Megoura viciae)
For evaluating control of vetch aphid (Megoura viciae) through contact or systemic means the test unit consisted of 24-well-microtiter plates containing broad bean leaf disks. The compounds were formulated using a solution containing 75% v/v water and 25% v/v DMSO. Different concentrations of formulated compounds were sprayed onto the leaf disks at 2.5 μl, using a custom built micro atomizer, at two replications. After application, the leaf disks were air-dried and 5-8 adult aphids placed on the leaf disks inside the microtiter plate wells. The aphids were then allowed to suck on the treated leaf disks and incubated at about 23±1° C. and about 50±5% relative humidity for 5 days. Aphid mortality and fecundity was then visually assessed.

[3] = test system: Rice brown plant hopper (Nilaparvata lugens); assay: B.11 Rice brown plant hopper test on sprayed rice seedlings; details: in comparison with untreated controls, after 72 hours
Description: B.11 Rice brown plant hopper (Nilaparvata lugens)
Rice seedlings were cleaned and washed 24 hours before spraying. The active compounds were formulated in 50:50 acetone:water (vol:vol) and 0.1% vol/vol surfactant (EL 620) was added. Potted rice seedlings were sprayed with 5 ml test solution, air dried, placed in cages and inoculated with 10 adults. Treated rice plants were kept at about 28-29° C. and relative humidity of about 50-60%. Percent mortality was recorded after 72 hours.

[4] = test system: Green Peach Aphid (Myzus persicae); assay: B.3 Green peach aphid systemic test, artificial diet under membrane; details: 72 h, concentration of the test solution 2500 mg/L, 3 days
From the text: B.3 Green Peach Aphid (Myzus persicae)
For evaluating control of green peach aphid (Myzus persicae) through systemic means the test unit consisted of 96-well-microtiter plates containing liquid artificial diet under an artificial membrane. The compounds were formulated using a solution containing 75% v/v water and 25% v/v DMSO. Different concentrations of formulated compounds were pipetted into the aphid diet, using a custom built pipetter, at two replications. After application, 5-8 adult aphids were placed on the artificial membrane inside the microtiter plate wells. The aphids were then allowed to suck on the treated aphid diet and incubated at about 23±1° C. and about 50±5% relative humidity for 3 days. Aphid mortality and fecundity was then visually assessed.

[5] = test system: Boll Weevil (Anthonomus grandis); assay: B.9 Boll weevil microtiter diet test, egg and larval mortality; details: 120 h, in comparison with untreated controls, egg and larval mortality after 5 days
Description: B.9 Boll Weevil (Anthonomus grandis)
(§1) For evaluating control of boll weevil (Anthonomus grandis) the test unit consisted of 24-well-microtiter plates containing an insect diet and 20-30 A. grandis eggs. The compounds were formulated using a solution containing 75% v/v water and 25% v/v DMSO. Different concentrations of formulated compounds were sprayed onto the insect diet at 20 μl, using a custom built micro atomizer, at two replications. After application, microtiter plates were incubated at about 23±1° C. and about 50±5% relative humidity for 5 days. Egg and larval mortality was then visually assessed.

[6] = test system: Mediterranean Fruitfly (Ceratitis capitata); assay: B.2 Mediterranean fruitfly microtiter diet test, egg and larval mortality; details: 120 h, in comparison with untreated controls, egg and larval mortality after 5 days
Description: B.2 Mediterranean Fruitfly (Ceratitis capitata)
as §1, with “Mediterranean fruitfly (Ceratitis capitata)” for “boll weevil (Anthonomus grandis)”, “microtiter” for “24-well-microtiter”, “50-80 C. capitata” for “20-30 A. grandis”, “5” for “20”, “28±1°” for “23±1°”, “80±5%” for “50±5%”

[7] = test system: Orchid Thrips (Dichromothrips corbetti); assay: B.4 Orchid thrips floral-immersion test; details: 96 h, in comparison with untreated controls, after 4 days
Description: B.4 Orchid Thrips (Dichromothrips Corbetti)
Dichromothrips corbetti adults used for bioassay are obtained from a colony maintained continuously under laboratory conditions. For testing purposes, the test compound is diluted to a concentration of 300 ppm (wt compound: vol diluent) in a 1:1 mixture of acetone:water (vol:vol), plus 0.01% vol/vol Kinetic® surfactant. Thrips potency of each compound is evaluated by using a floral-immersion technique. Plastic petri dishes are used as test arenas. All petals of individual, intact orchid flowers are dipped into treatment solution and allowed to dry. Treated flowers are placed into individual petri dishes along with 10-15 adult thrips. The petri dishes are then covered with lids. All test arenas are held under continuous light and a temperature of about 28° C. for duration of the assay. After 4 days, the numbers of live thrips are counted on each flower, and along inner walls of each petri dish. The level of thrips mortality is extrapolated from pre-treatment thrips numbers.

[8] = test system: Silverleaf Whitefly (Bemisia argentifolii); assay: B.5 Silverleaf whitefly test on sprayed cotton plants; details: 72 h, in comparison with untreated controls, 3 days after treatment
Description: B.5 Silverleaf Whitefly (Bemisia argentifolii)
The active compounds were formulated in cyclohexanone as a 10,000 ppm solution supplied in 1.3 ml ABgene® tubes. These tubes were inserted into an automated electrostatic sprayer equipped with an atomizing nozzle and they served as stock solutions for which lower dilutions were made in 50% acetone:50% water (v/v). A nonionic surfactant (Kinetic®) was included in the solution at a volume of 0.01% (v/v). Cotton plants at the cotyledon stage (one plant per pot) were sprayed by an automated electrostatic plant sprayer equipped with an atomizing spray nozzle. The plants were dried in the sprayer fume hood and then removed from the sprayer. Each pot was placed into a plastic cup and 10 to 12 whitefly adults (approximately 3-5 days old) were introduced. The insects were collected using an aspirator and 0.6 cm, nontoxic Tygon® tubing (R-3603) connected to a barrier pipette tip. The tip, containing the collected insects, was then gently inserted into the soil containing the treated plant, allowing insects to crawl out of the tip to reach the foliage for feeding. Cups were covered with a reusable screened lid (150-micron mesh polyester screen PeCap from Tetko, Inc.). Test plants were maintained in a growth room at 25° C. and 20-40% relative humidity for 3 days, avoiding direct exposure to fluorescent light (24 hour photoperiod) to prevent trapping of heat inside the cup. Mortality was assessed 3 days after treatment, compared to untreated control plants.

[9] = test system: Cowpea Aphid (Aphis craccivora); assay: B.1 Cowpea aphid spray test on potted cowpea plants; details: in comparison with untreated controls, population reduction assessed after 24, 72 and 120 hours
Description: B.1 Cowpea Aphid (Aphis craccivora)
The active compounds were formulated in 50:50 (v/v) acetone:water. The test solution was prepared at the day of use. Potted cowpea plants colonized with approximately 100-150 aphids of various stages were sprayed after the pest population has been recorded. Population reduction was assessed after 24, 72, and 120 hours.

[10] = test system: Green Soldier Stink Bug (Nezara viridula); assay: B.15 Green soldier stink bug test on sprayed soybean pods; details: 120 h, in comparison with untreated controls, after 5 days
Description: B.15 Green Soldier Stink Bug (Nezara viridula)
The active compound is dissolved at the desired concentration in a mixture of 1:1 (vol:vol) distilled water:aceteone. Surfactant (Kinetic HV) is added at a rate of 0.01% (vol/vol). The test solution is prepared at the day of use. Soybean pods were placed in microwavable plastic cups lined with moist filter paper and inoculated with ten 3rd instar N. viridula. Using a hand atomizer, an approximately 2 ml solution is sprayed into each cup. Treated cups were kept at about 28-29° C. and relative humidity of about 50-60%. Percent mortality was recorded after 5 days.

Cc1cccc(C(C#N)(C#N)Cc2ccc(C(F)(F)F)cn2)c1 [II-37]
≥ 75%: mortality at 2500 ppm [1]

N#CC(C#N)(Cc1cnc(C(F)(F)F)nc1)c1ccc(F)cc1 [II-23]
≥ 75%: mortality at 2500 ppm [2] | mortality at 300 ppm [3] | mortality at 2500 µg/mL [4] | mortality at 2500 ppm [5] | mortality at 2500 ppm [6] | mortality at 500 ppm [7] | mortality at 2500 ppm [1] | mortality at 500 ppm [8] | mortality at 500 ppm [9]

N#CC(C#N)(Cc1ncc(C(F)(F)F)cn1)c1cccc(F)c1 [II-18]
≥ 75%: mortality at 2500 ppm [2] | mortality at 2500 µg/mL [4] | mortality at 2500 ppm [5] | mortality at 500 ppm [7] | mortality at 2500 ppm [1] | mortality at 500 ppm [8]

N#CC(C#N)(Cc1ccc(C(F)(F)F)nc1)c1ccc(Cl)cc1 [II-2]
≥ 75%: mortality at 2500 ppm [5] | mortality at 500 ppm [7] | mortality at 2500 ppm [1] | mortality at 500 ppm [8] | mortality at 500 ppm [9]

N#CC(C#N)(Cc1ccc(Br)cn1)c1ccc(F)cc1 [II-10, 2-[(5-bromo-2-pyridyl)methyl]-2-(4-fluorophenyl)propanedinitrile]
≥ 75%: mortality at 300 ppm [3] | mortality at 2500 ppm [5] | mortality at 500 ppm [7]

Cc1cccc(C(C#N)(C#N)Cc2ccc(C(F)(F)F)nc2)c1 [II-22]
≥ 75%: mortality at 300 ppm [3]

Cc1cccc(CC(C#N)(C#N)c2cc(F)c(F)c(F)c2)n1 [II-65]
≥ 75%: mortality at 300 ppm [3] | mortality at 2500 ppm [5] | mortality at 500 ppm [7] | mortality at 2500 ppm [1] | mortality at 500 ppm [10]

N#CC(C#N)(Cc1c(Cl)cncc1Cl)c1cc(F)c(F)c(F)c1 [II-66]
≥ 75%: mortality at 2500 ppm [2] | mortality at 2500 ppm [1]

N#CC(C#N)(Cc1ccc(C(F)(F)F)nn1)c1cccc(F)c1 [II-15]
≥ 75%: mortality at 2500 µg/mL [4] | mortality at 2500 ppm [5] | mortality at 500 ppm [7] | mortality at 2500 ppm [1] | mortality at 500 ppm [8] | mortality at 500 ppm [9]

N#CC(C#N)(Cc1cnc(C(F)(F)F)nc1)c1cccc(F)c1 [II-21]
≥ 75%: mortality at 2500 ppm [2] | mortality at 300 ppm [3] | mortality at 2500 ppm [5] | mortality at 500 ppm [7] | mortality at 2500 ppm [1] | mortality at 500 ppm [8] | mortality at 500 ppm [10] | mortality at 500 ppm [9]

N#CC(C#N)(Cc1ccc(C(F)(F)F)nn1)c1ccccc1 [II-13]
≥ 75%: mortality at 2500 µg/mL [4] | mortality at 2500 ppm [5] | mortality at 2500 ppm [1] | mortality at 500 ppm [8]

N#CC(C#N)(Cc1ccc(C(F)(F)F)cn1)c1ccccc1 [II-4]
≥ 75%: mortality at 2500 ppm [2] | mortality at 300 ppm [3] | mortality at 2500 µg/mL [4] | mortality at 2500 ppm [5] | mortality at 500 ppm [7] | mortality at 2500 ppm [1] | mortality at 500 ppm [8] | mortality at 500 ppm [10] | mortality at 500 ppm [9]

N#CC(C#N)(Cc1ccc(C(F)(F)F)cn1)c1cccc(F)c1F [II-49]
≥ 75%: mortality at 300 ppm [3] | mortality at 500 ppm [7] | mortality at 500 ppm [10]

N#CC(C#N)(Cc1ccc(C(F)(F)F)nc1)c1ccccc1F [II-24]
≥ 75%: mortality at 300 ppm [3] | mortality at 2500 ppm [5] | mortality at 500 ppm [7] | mortality at 2500 ppm [1] | mortality at 500 ppm [8]

N#CC(C#N)(Cc1ccc(F)cn1)c1ccc(F)cc1 [II-12]
≥ 75%: mortality at 500 ppm [8]

N#CC(C#N)(Cc1ccc(C(F)(F)F)nc1)c1cc(C(F)(F)F)cc(C(F)(F)F)c1 [II-54]
≥ 75%: mortality at 2500 ppm [1]

N#CC(C#N)(Cc1ccc(C(F)(F)F)cn1)c1cc(C(F)(F)F)cc(C(F)(F)F)c1 [II-60]
≥ 75%: mortality at 2500 ppm [1]

N#CC(C#N)(Cc1ccc(C(F)(F)F)nc1)c1cc(F)cc(C(F)(F)F)c1 [II-46]
≥ 75%: mortality at 500 ppm [7] | mortality at 2500 ppm [1]

C#Cc1ccc(C(C#N)(C#N)Cc2ccc(C(F)(F)F)nc2)cc1 [II-1]
≥ 75%: mortality at 300 ppm [3] | mortality at 2500 ppm [5] | mortality at 500 ppm [8]

N#CC(C#N)(Cc1ccccn1)c1ccccc1 [II-29]
≥ 75%: mortality at 2500 ppm [1]

Cc1cc(C)cc(C(C#N)(C#N)Cc2ccc(C(F)(F)F)cn2)c1 [II-47]
≥ 75%: mortality at 2500 ppm [1] | mortality at 500 ppm [9]

COc1cccc(C(C#N)(C#N)Cc2ccc(C(F)(F)F)cn2)c1 [II-39]
≥ 75%: mortality at 2500 µg/mL [4]

N#CC(C#N)(Cc1ccc(C(F)(F)F)cn1)c1ccccc1F [II-36]
≥ 75%: mortality at 300 ppm [3] | mortality at 2500 ppm [5] | mortality at 2500 ppm [1] | mortality at 500 ppm [8]

N#CC(C#N)(Cc1cnc(C(F)(F)F)cn1)c1ccc(F)cc1 [II-27]
≥ 75%: mortality at 2500 ppm [2] | mortality at 300 ppm [3] | mortality at 2500 ppm [5] | mortality at 2500 ppm [6] | mortality at 500 ppm [7] | mortality at 2500 ppm [1] | mortality at 500 ppm [8]

Source: patent US10117430B2, “Malononitrile compounds for controlling animal pests” (BASF SE, priority 2012, dated 2018)
